Reference: PubChem BioAssay AID248 (DTP/NCI, 2004)
Where “and” joins values, the source holds several entries; their conditions need not be identical. Equal entries are not always repeated. Toxic doses and inconclusive results are not listed. No stated cut-off is given here; in the data, active means T/C of 150% or more; inactive means T/C below 125%.

Tested on: L1210 leukemia ip in BDF1 mice, survival T/C
Test: NCI In Vivo Anticancer Drug Screen. Data for tumor model L1210 Leukemia (intraperitoneal) in B6D2F1 (BDF1) mice
Conditions: endpoint: mean survival time, higher = longer survival
In short: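 Transplantable tumor model; survival measured in treated vs vehicle control mice. Value = treated/control.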

[1] = dose: 100.0 mg/kg/injection, schedule: Q01DX009 (ip), vehicle: saline
[2] = dose: 200.0 mg/kg/injection, schedule: Q01DX009 (ip), vehicle: saline
[3] = dose: 400.0 mg/kg/injection, schedule: Q01DX009 (ip), vehicle: saline
[4] = dose: 100.0 mg/kg/injection, schedule: Q04DX003 (ip), vehicle: Klucel (hydroxypropylcellulose) (HPC)
[5] = dose: 200.0 mg/kg/injection, schedule: Q04DX003 (ip), vehicle: Klucel (hydroxypropylcellulose) (HPC)
[6] = dose: 50.0 mg/kg/injection, schedule: Q01DX001 (ip), vehicle: saline
[7] = dose: 100.0 mg/kg/injection, schedule: Q01DX001 (ip), vehicle: saline
[8] = dose: 200.0 mg/kg/injection, schedule: Q01DX001 (ip), vehicle: saline
[9] = dose: 400.0 mg/kg/injection, schedule: Q01DX001 (ip), vehicle: saline
[10] = dose: 100.0 mg/kg/injection, schedule: Q04DX003 (ip), vehicle: saline with Tween-80
[11] = dose: 200.0 mg/kg/injection, schedule: Q04DX003 (ip), vehicle: saline with Tween-80
[12] = dose: 50.0 mg/kg/injection, schedule: Q01DX009 (ip), vehicle: Klucel (hydroxypropylcellulose) (HPC)

Measured: T/C

CCCCCCCCCCCCc1ccc(CS)cc1
inactive: [1] 98 % of control | dose: 100.0 mg/kg/injection, schedule: Q04DX003 (ip), vehicle: saline 92 % of control | [2] 101 % of control | dose: 200.0 mg/kg/injection, schedule: Q04DX003 (ip), vehicle: saline 91 % of control | [3] 101 % of control | dose: 400.0 mg/kg/injection, schedule: Q04DX003 (ip), vehicle: saline 93 % of control

Clc1ccccc1C(c1ccc(-c2ccccc2)cc1)(c1ccc(-c2ccccc2)cc1)n1ccnc1
inactive: [4] 95 % of control | [5] 104 % of control | dose: 400.0 mg/kg/injection, schedule: Q04DX003 (ip), vehicle: Klucel (hydroxypropylcellulose) (HPC) 90 % of control

O=C1OC(/C=C/c2ccccc2)=NC/1=C\c1cccc([N+](=O)[O-])c1
inactive: dose: 25.0 mg/kg/injection, schedule: Q04DX002 (ip), vehicle: Klucel (hydroxypropylcellulose) (HPC) 93 % of control | dose: 50.0 mg/kg/injection, schedule: Q04DX002 (ip), vehicle: Klucel (hydroxypropylcellulose) (HPC) 104 % of control | dose: 100.0 mg/kg/injection, schedule: Q04DX002 (ip), vehicle: Klucel (hydroxypropylcellulose) (HPC) 89 % of control

CC(=O)OCC(OC(C)=O)C(OC(C)=O)C(OC(C)=O)C(C#N)OC(C)=O (stereo not drawn)
inactive: [6] 106 % of control | dose: 100.0 mg/kg/injection, schedule: Q01DX001 (ip), vehicle: other 115 % of control | [7] 103 % of control | dose: 200.0 mg/kg/injection, schedule: Q01DX001 (ip), vehicle: other 102 % of control | [8] 95 % of control | dose: 400.0 mg/kg/injection, schedule: Q01DX001 (ip), vehicle: other 96 % of control | [9] 91 % of control

CC(C)(C)C1CCC(NN)CC1 (stereo not drawn)
inactive: dose: 0.78 mg/kg/injection, schedule: Q01DX009 (ip), vehicle: saline 101 % of control | dose: 1.56 mg/kg/injection, schedule: Q01DX009 (ip), vehicle: saline 100 % of control | dose: 3.12 mg/kg/injection, schedule: Q01DX009 (ip), vehicle: saline 101 % of control | dose: 6.25 mg/kg/injection, schedule: Q01DX009 (ip), vehicle: saline 95 % of control | dose: 12.5 mg/kg/injection, schedule: Q04DX003 (ip), vehicle: saline 98 % of control | dose: 25.0 mg/kg/injection, schedule: Q04DX003 (ip), vehicle: saline 98 % of control | [6] 92 % of control

Cc1cccc(NC(=O)Nc2cccc(C(F)(F)F)c2)n1
inactive: dose: 100.0 mg/kg/injection, schedule: Q01DX009 (ip), vehicle: gum acacia 92 % of control | dose: 200.0 mg/kg/injection, schedule: Q01DX009 (ip), vehicle: gum acacia 87 % of control | dose: 400.0 mg/kg/injection, schedule: Q01DX009 (ip), vehicle: gum acacia 89 % of control

CCC[Si](Cl)(CCC)CCC
inactive: dose: 18.75 mg/kg/injection, schedule: Q01DX009 (ip), vehicle: acetone 98 % of control | dose: 37.5 mg/kg/injection, schedule: Q01DX009 (ip), vehicle: acetone 94 % of control | dose: 37.5 mg/kg/injection, schedule: Q04DX003 (ip), vehicle: acetone 99 % of control | dose: 75.0 mg/kg/injection, schedule: Q01DX001 (ip), vehicle: acetone 93 % of control | dose: 75.0 mg/kg/injection, schedule: Q01DX009 (ip), vehicle: acetone 96 % of control | dose: 75.0 mg/kg/injection, schedule: Q04DX003 (ip), vehicle: acetone 94 % of control | dose: 150.0 mg/kg/injection, schedule: Q01DX001 (ip), vehicle: acetone 101 % of control | dose: 150.0 mg/kg/injection, schedule: Q04DX003 (ip), vehicle: acetone 100 % of control | dose: 300.0 mg/kg/injection, schedule: Q01DX001 (ip), vehicle: acetone 86 % of control

O=S(=O)(O)SCC1=NCCN1
inactive: dose: 25.0 mg/kg/injection, schedule: Q04DX002 (ip), vehicle: saline 103 % of control | dose: 50.0 mg/kg/injection, schedule: Q04DX002 (ip), vehicle: saline 93 % of control | dose: 100.0 mg/kg/injection, schedule: Q04DX002 (ip), vehicle: saline 98 % of control

C=CCNC(=O)Nc1cccc(OC(=O)NC(C)(C)C)c1
inactive: [10] 94 % of control | [11] 94 % of control | dose: 400.0 mg/kg/injection, schedule: Q04DX003 (ip), vehicle: saline with Tween-80 94 % of control

CC(=O)C(c1ccc(N(C)C)cc1)c1ccc(N(C)C)cc1
inactive: [6] 101 % of control | [7] 101 % of control | [8] 101 % of control | [9] 101 % of control

COC1CC2C(C[CH]1[Hg][Cl])C2(Cl)Cl (stereo not drawn)
inactive: dose: 3.13 mg/kg/injection, schedule: Q01DX009 (ip), vehicle: saline with Tween-80 103 % of control | dose: 6.25 mg/kg/injection, schedule: Q01DX009 (ip), vehicle: saline with Tween-80 94 % of control | dose: 6.25 mg/kg/injection, schedule: Q04DX003 (ip), vehicle: saline with Tween-80 105 % of control | dose: 12.5 mg/kg/injection, schedule: Q01DX009 (ip), vehicle: saline with Tween-80 96 % of control | dose: 12.5 mg/kg/injection, schedule: Q04DX003 (ip), vehicle: saline with Tween-80 96 % of control

OC(CN1CCCCC1)c1nc2ccccc2c2ccccc12 (stereo not drawn)
inactive: [6] 102 % of control | [7] 94 % of control

CC(C)(C)S(=O)(=O)CCCCS(=O)(=O)C(C)(C)C
inactive: [7] 102 % of control | [1] 104 % of control | dose: 100.0 mg/kg/injection, schedule: Q04DX003 (ip), vehicle: acetone 100 % of control | [8] 94 % of control | [2] 96 % of control | dose: 200.0 mg/kg/injection, schedule: Q04DX003 (ip), vehicle: acetone 96 % of control | [9] 88 % of control | [3] 105 % of control | dose: 400.0 mg/kg/injection, schedule: Q04DX003 (ip), vehicle: acetone 89 % of control

CCCCNC(=O)C1C=C2c3cccc4[nH]cc(c34)CC2N(C)C1 (stereo not drawn)
inactive: dose: 12.5 mg/kg/injection, schedule: Q01DX009 (ip), vehicle: Klucel (hydroxypropylcellulose) (HPC) 102 % of control | dose: 25.0 mg/kg/injection, schedule: Q01DX009 (ip), vehicle: Klucel (hydroxypropylcellulose) (HPC) 104 % of control | dose: 25.0 mg/kg/injection, schedule: Q04DX003 (ip), vehicle: Klucel (hydroxypropylcellulose) (HPC) 93 % of control | [12] 118 % of control | dose: 50.0 mg/kg/injection, schedule: Q04DX003 (ip), vehicle: Klucel (hydroxypropylcellulose) (HPC) 93 % of control | [4] 104 % of control | [5] 95 % of control

Cc1cc(S(=O)(=O)NO)c(N)cc1Cl
inactive: [12] 108 % of control | dose: 100.0 mg/kg/injection, schedule: Q01DX009 (ip), vehicle: Klucel (hydroxypropylcellulose) (HPC) 99 % of control | dose: 200.0 mg/kg/injection, schedule: Q01DX009 (ip), vehicle: Klucel (hydroxypropylcellulose) (HPC) 99 % of control

C1CCC(N2OC23CCCCC3)CC1 (stereo not drawn)
inactive: dose: 100.0 mg/kg/injection, schedule: Q01DX001 (ip), vehicle: carboxymethylcellulose (CMC) 92 % of control | dose: 200.0 mg/kg/injection, schedule: Q01DX001 (ip), vehicle: carboxymethylcellulose (CMC) 90 % of control | dose: 400.0 mg/kg/injection, schedule: Q01DX001 (ip), vehicle: carboxymethylcellulose (CMC) 92 % of control

Nc1nc(N)c2nc(CNC3CCCCC3)cnc2n1
inactive: dose: 20.0 mg/kg/injection, schedule: Q01DX009 (ip), vehicle: Klucel (hydroxypropylcellulose) (HPC) 95 % of control | dose: 40.0 mg/kg/injection, schedule: Q01DX009 (ip), vehicle: Klucel (hydroxypropylcellulose) (HPC) 93 % of control | dose: 80.0 mg/kg/injection, schedule: Q01DX009 (ip), vehicle: Klucel (hydroxypropylcellulose) (HPC) 97 % of control

c1ccc(C2O[O][Sn]([c]3ccccc3)([c]3ccccc3)[O]2)cc1 (stereo not drawn)
inactive: dose: 25.0 mg/kg/injection, schedule: Q04DX002 (ip), vehicle: gum acacia 97 % of control | dose: 50.0 mg/kg/injection, schedule: Q04DX002 (ip), vehicle: gum acacia 111 % of control | dose: 100.0 mg/kg/injection, schedule: Q04DX002 (ip), vehicle: gum acacia 105 % of control and 86 % of control

O=C(O)c1ccc[n+](Cc2ccccc2)c1
inactive: dose: 75.0 mg/kg/injection, schedule: Q04DX003 (ip), vehicle: saline 90 % of control | dose: 150.0 mg/kg/injection, schedule: Q04DX003 (ip), vehicle: saline 97 % of control | dose: 300.0 mg/kg/injection, schedule: Q04DX003 (ip), vehicle: saline 94 % of control

CCCCCCOP1(=O)C=C(C)CC1 (stereo not drawn)
inactive: [10] 93 % of control | [11] 90 % of control
